From patent publication US7422846B2, “Natural ligand for orphan G protein coupled receptor GPR86 and methods of use” (Euroscreen S.A, priority 2001, dated 2008)

Tests used:
Format in all cases: cell-based
[1] = tested on: CHO-K1 control cells; test: Erk phosphorylation in CHO-K1 control cells transfected with empty pEFIN5 vector; details: 1 μM; 5 min, 20 min or 1 h
[2] = target: T1, GPR86 (P2Y13) human receptor (Homo sapiens, UniProt Q9BPV8, T179M); test: cAMP accumulation in CHO-K1 cells expressing GPR86 in the presence of forskolin; parameters: expressed in transfected cells; host or cells: 1321N1 astrocytoma clone AG32 (stably expressing Gα16 from pERAEQ2), G418-selected; details: forskolin 4 μM
T1 sequence (Q9BPV8 22-354 T179M): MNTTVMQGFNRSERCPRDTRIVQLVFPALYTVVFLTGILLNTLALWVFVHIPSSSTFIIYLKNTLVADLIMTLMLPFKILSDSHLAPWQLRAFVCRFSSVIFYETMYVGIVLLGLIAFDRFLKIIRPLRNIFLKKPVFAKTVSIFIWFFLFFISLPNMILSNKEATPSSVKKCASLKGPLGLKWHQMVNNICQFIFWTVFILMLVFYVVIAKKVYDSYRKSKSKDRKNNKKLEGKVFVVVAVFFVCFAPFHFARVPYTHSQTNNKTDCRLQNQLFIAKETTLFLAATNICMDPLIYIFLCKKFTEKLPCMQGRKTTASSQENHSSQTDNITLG
Experimental: Secondary messenger assays, amenable to high throughput screening analysis, are performed including but not limited to the measurement of intracellular levels of cAMP, intracellular inositol phosphate, intracellular diacylglycerol concentrations, arachinoid acid concentration or MAP kinase or tyrosine kinase activity (as decribed above). For example, the GPR86 activity, as measured in a cyclic AMP assay, is quantified by a radioimmunoassay as previously described (26). Results are compared to the baseline level of GPR86 activity obtained from recombinant cells according to the invention in the presence of ADP but in the absence of added modulator compound. Wells showing at least 2 fold, preferably 5 fold, more preferably 10 fold and most preferably a 100 fold or more increase or decrease in GPR86 activity as compared to the level of activity in the absence of modulator, are selected for further analysis.
The potential effect of nucleotides was tested on the cAMP pathway in CHO-K1 cells expressing the human GPR86 receptor. […] CHO-K1 transfected cells were incubated in the presence of various concentrations of ADP and 4 μM forskolin for 10 min. The data represent the mean±S.D. of triplicate experimental points obtained in one representative experiment of three and 2MeSADP in the presence of forskolin 4 μM. […] CHO-K1 transfected cells were incubated in the presence of various concentrations of ADP an 4 μM forskolin for 10 minutes. The data represent the mean+/−S.D. of triplicate experimental points obtained in one representative experiment of three. CHO-K1 transfected cells were pre-incubated with or without 100 ng/ml pertussis toxin for 18 h and then incubated in the presence of ADP (100 nM and 100 μM) or water (CONT) and 4 μM forskolin for 10 min. The data represent the mean±S.D. of triplicate experimental points obtained in one representative experiment of two. The biphasic effect of ADP on adenylyl cyclase has been reproduced in 1321N1 cells transfected with the human GPR86 receptor.

[3] = target: T1, GPR86 (P2Y13) human receptor; test: Western blot of phosphorylated Erk1 and Erk2 in GPR86-transfected CHO-K1 cells; parameters: expressed in transfected cells; details: for Erk phosphorylation / time of stimulation giving maximal Erk phosphorylation response: 1 μM; for concentration at which a significant effect on Erk phosphorylation was already observed / concentration giving maximal effect on Erk phosphorylation: 5 min stimulation; for concentration giving maximal effect on Erk phosphorylation: 1 nM to 10 μM tested
Experimental: To investigate changes in the activation status of the MAP kinases Erk1 and Erk2 upon stimulation of the human GPR86 receptor, whole CHO-K1 transfected cell extracts were analysed by Western blotting using a specific antibody for the dually phosphorylated kinases (at Thr^202 and Tyr^204), which are the active forms of Erk. Western Blot Analysis of phosphorylated Erk1 and Erk2 proteins.
GPR86-transfected CHO-K1 cells were seeded at 1.5×10^6 cells/dish. After 24 h, the cells were serum-starved for 2 h in KRH buffer. After stimulation with the agonist, the cells were scraped in 1 ml of PBS pH 7.3 (137 mM NaCl, 2.7 mM KCl, 4.3 mM Na2HPO4.7H2O and 1.4 mM KH2PO4). The cells were recovered by centrifugation and lysed in 150 μl of Laemmli buffer (10% (w/v) glycerol, 5% (v/v) mercaptoethanol, 2.3% (w/v) SDS, 62.5 mM Tris-HCl pH 6.8). The protein concentration was determined using the method of Minamide and Bamburg (27). The same amount of protein for each condition was electrophoresed in a 12% SDS-polyacrylamide gel. Proteins were then transferred overnight at 60 V and 4° C. onto a nitrocellulose membrane using 20 mM Tris, 154 mM glycine, 20% (v/v) methanol as a transfer buffer. Immunodetection was achieved using the enhanced chemiluminescence Western blotting detection system (ECL, Amersham Phammacia Biotech) using a biotinylated-secondary mouse antibody ( 1/25,000). The monoclonal antibody specific for the dually phosphorylated forms of Erk1 and Erk2 (at Thr^202 and Tyr^204) was used at 1/1000-dilution.
In CHO-K1 cells, phosphorylated Erk1 and Erk2 had the predicted molecular mass of 44 and 42 kDa, respectively. […] GPR86-transfected CHO-K1 cells were stimulated during different times or with various concentrations of ADP and 2MeSADP or water (CONT). The effect of 100 ng/ml pertussis toxin (PTx) has been tested at 5 and 30 min in the presence of 1 μM ADP or 2MeSADP. Blotting and immunodetection were achieved as described using the enhanced chemiluminescence Western blotting detection system (ECL, Amersham Pharmacia Biotech).

CSc1nc(N)c2ncn([C@@H]3O[C@H](COP(=O)(O)OP(=O)(O)O)[C@@H](O)[C@H]3O)c2n1 [2MeSADP, 2-methylthio-ADP]
Erk1 or Erk2 phosphorylation [1]: not observed | effect on cAMP level at low concentrations [2]: Significant inhibitions of the cAMP level | Erk phosphorylation [3]: strong phosphorylation of Erk2 | time of stimulation giving maximal Erk phosphorylation response [3]: 5 min | concentration at which a significant effect on Erk phosphorylation was already observed [3]: 10 nM | concentration giving maximal effect on Erk phosphorylation [3]: 1 µM

Nc1ncnc2c1ncn2[C@@H]1O[C@H](COP(=O)(O)OP(=O)(O)O)[C@@H](O)[C@H]1O [ADP]
Erk1 or Erk2 phosphorylation [1]: not observed | effect on adenylyl cyclase / cAMP at high concentration ([2]; 10 μM): small increase | effect on cAMP level after pertussis toxin pretreatment ([2]; ADP 100 nM and 100 μM, 18 h pretreatment with 100 ng/ml pertussis toxin): significant increases of the cAMP level | maximal inhibition percentage of cAMP ([2]; at 30 nM): 52±7% | effect on cAMP level at low concentrations [2]: Significant inhibitions of the cAMP level | IC50 ([2]; 10 min, mean±S.D. of three independent experiments, read-out: IC50, inhibition of cAMP level): 1.5 ± 0.6 nM | Erk phosphorylation [3]: strong phosphorylation of Erk2 | time of stimulation giving maximal Erk phosphorylation response [3]: 5 min | concentration at which a significant effect on Erk phosphorylation was already observed [3]: 10 nM | concentration giving maximal effect on Erk phosphorylation [3]: 1 µM
